PubChem BioAssay AID248 (DTP/NCI, 2004)
Values joined by “and” are separate entries in the source; they are usually repeats but may differ in a detail not shown here. Identical values can stand only once. Inconclusive results and toxic doses are left out. Cut-off read from the data, not from the text of the source: active = T/C of 150% or more; inactive = T/C below 125%.

Tested on: L1210 leukemia ip in BDF1 mice, survival T/C
Test: NCI In Vivo Anticancer Drug Screen. Data for tumor model L1210 Leukemia (intraperitoneal) in B6D2F1 (BDF1) mice
Settings: endpoint: mean survival time, higher = longer survival
Method in brief: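 In this screen, tumor-bearing mice given compound are compared to those given vehicle, and their survival values are reported as a treated-to-control quotient.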

[1] = dose: 100.0 mg/kg/injection, schedule: Q01DX001 (ip), vehicle: carboxymethylcellulose (CMC)
[2] = dose: 200.0 mg/kg/injection, schedule: Q01DX001 (ip), vehicle: carboxymethylcellulose (CMC)
[3] = dose: 400.0 mg/kg/injection, schedule: Q01DX001 (ip), vehicle: carboxymethylcellulose (CMC)
[4] = dose: 6.25 mg/kg/injection, schedule: Q01DX001 (ip), vehicle: saline
[5] = dose: 100.0 mg/kg/injection, schedule: Q04DX003 (ip), vehicle: Klucel (hydroxypropylcellulose) (HPC)
[6] = dose: 200.0 mg/kg/injection, schedule: Q04DX003 (ip), vehicle: Klucel (hydroxypropylcellulose) (HPC)
[7] = dose: 400.0 mg/kg/injection, schedule: Q04DX003 (ip), vehicle: Klucel (hydroxypropylcellulose) (HPC)
[8] = dose: 25.0 mg/kg/injection, schedule: Q01DX009 (ip), vehicle: Klucel (hydroxypropylcellulose) (HPC)
[9] = dose: 50.0 mg/kg/injection, schedule: Q01DX009 (ip), vehicle: Klucel (hydroxypropylcellulose) (HPC)
[10] = dose: 100.0 mg/kg/injection, schedule: Q01DX009 (ip), vehicle: Klucel (hydroxypropylcellulose) (HPC)
[11] = dose: 100.0 mg/kg/injection, schedule: Q04DX002 (ip), vehicle: saline
[12] = dose: 200.0 mg/kg/injection, schedule: Q04DX002 (ip), vehicle: saline

Measured: T/C

O=C1c2cc(Br)ccc2-c2c(Cl)cc(Br)cc21
inactive: [1] 105 % of control | [2] 97 % of control | [3] 105 % of control

O=C(C#CC(=O)[O][Sn]([c]1ccccc1)([c]1ccccc1)[c]1ccccc1)[O][Sn]([c]1ccccc1)([c]1ccccc1)[c]1ccccc1
inactive: [4] 90 % of control | dose: 12.5 mg/kg/injection, schedule: Q01DX001 (ip), vehicle: saline 95 % of control | dose: 25.0 mg/kg/injection, schedule: Q01DX001 (ip), vehicle: saline 100 % of control | dose: 35.0 mg/kg/injection, schedule: Q01DX001 (ip), vehicle: Klucel (hydroxypropylcellulose) (HPC) 91 % of control

Cc1cccc(C)c1NC(=O)OCCSc1ccc(Cl)cc1
inactive: dose: 50.0 mg/kg/injection, schedule: Q01DX009 (ip), vehicle: saline with Tween-80 115 % of control | dose: 100.0 mg/kg/injection, schedule: Q01DX009 (ip), vehicle: saline with Tween-80 96 % of control | dose: 200.0 mg/kg/injection, schedule: Q01DX009 (ip), vehicle: saline with Tween-80 93 % of control

CCOC(=O)c1ccccc1N(O)C(=O)Nc1ccc(C)cc1
inactive: dose: 100.0 mg/kg/injection, schedule: Q04DX003 (ip), vehicle: saline with Tween-80 97 % of control | dose: 200.0 mg/kg/injection, schedule: Q04DX003 (ip), vehicle: saline with Tween-80 105 % of control | dose: 400.0 mg/kg/injection, schedule: Q04DX003 (ip), vehicle: saline with Tween-80 109 % of control

CCOC(=O)Nc1ccc(OCC)cc1
inactive: dose: 50.0 mg/kg/injection, schedule: Q01DX001 (ip), vehicle: Klucel (hydroxypropylcellulose) (HPC) 98 % of control | dose: 100.0 mg/kg/injection, schedule: Q01DX001 (ip), vehicle: Klucel (hydroxypropylcellulose) (HPC) 101 % of control | dose: 200.0 mg/kg/injection, schedule: Q01DX001 (ip), vehicle: Klucel (hydroxypropylcellulose) (HPC) 102 % of control and 106 % of control | dose: 400.0 mg/kg/injection, schedule: Q01DX001 (ip), vehicle: Klucel (hydroxypropylcellulose) (HPC) 97 % of control and 98 % of control

CCOC(=O)c1cnc(SC)nc1Nc1ccccc1OC
inactive: [5] 90 % of control | [6] 92 % of control | [7] 87 % of control

O=c1oc2c3ccccc3c3ccccc3c2o1
inactive: [8] 113 % of control | [9] 103 % of control | [10] 94 % of control

CC1CCN(C(=O)CCCCl)CC1
inactive: [11] 104 % of control | [12] 114 % of control

C=CCCC(C)=O
inactive: dose: 100.0 mg/kg/injection, schedule: Q04DX002 (ip), vehicle: saline with Tween-80 102 % of control | dose: 200.0 mg/kg/injection, schedule: Q04DX002 (ip), vehicle: saline with Tween-80 102 % of control | dose: 400.0 mg/kg/injection, schedule: Q04DX002 (ip), vehicle: saline with Tween-80 102 % of control

CCN(CC)C(=O)C(N)Cc1ccc(OC)c(N(CCCl)CCCl)c1 (configuration not stated)
inactive: dose: 6.0 mg/kg/injection, schedule: Q01DX009 (ip), vehicle: saline 103 % of control | dose: 10.0 mg/kg/injection, schedule: Q01DX009 (ip), vehicle: saline 103 % of control | dose: 14.0 mg/kg/injection, schedule: Q01DX009 (ip), vehicle: saline 112 % of control | dose: 22.0 mg/kg/injection, schedule: Q01DX009 (ip), vehicle: saline 105 % of control | dose: 33.0 mg/kg/injection, schedule: Q01DX001 (ip), vehicle: saline 123 % of control | dose: 33.0 mg/kg/injection, schedule: Q01DX009 (ip), vehicle: saline 108 % of control | dose: 50.0 mg/kg/injection, schedule: Q01DX001 (ip), vehicle: saline 123 % of control | dose: 50.0 mg/kg/injection, schedule: Q01DX009 (ip), vehicle: carboxymethylcellulose (CMC) 104 % of control | dose: 50.0 mg/kg/injection, schedule: Q01DX009 (ip), vehicle: saline 116 % of control | dose: 75.0 mg/kg/injection, schedule: Q01DX009 (ip), vehicle: carboxymethylcellulose (CMC) 103 % of control | dose: 112.0 mg/kg/injection, schedule: Q01DX001 (ip), vehicle: saline 113 % of control | dose: 112.5 mg/kg/injection, schedule: Q01DX001 (ip), vehicle: carboxymethylcellulose (CMC) 116 % of control | dose: 150.0 mg/kg/injection, schedule: Q01DX001 (ip), vehicle: carboxymethylcellulose (CMC) 117 % of control

CC(=O)Nc1ccc(NC(=O)Nc2ccc(Cl)cc2)cc1
inactive: dose: 25.0 mg/kg/injection, schedule: Q01DX001 (ip), vehicle: carboxymethylcellulose (CMC) 92 % of control and 90 % of control | dose: 50.0 mg/kg/injection, schedule: Q01DX001 (ip), vehicle: carboxymethylcellulose (CMC) 93 % of control and 97 % of control | [1] 95 % of control and 101 % of control and 87 % of control | dose: 100.0 mg/kg/injection, schedule: Q01DX009 (ip), vehicle: carboxymethylcellulose (CMC) 93 % of control and 94 % of control | dose: 100.0 mg/kg/injection, schedule: Q04DX003 (ip), vehicle: carboxymethylcellulose (CMC) 87 % of control and 88 % of control | [2] 94 % of control | dose: 200.0 mg/kg/injection, schedule: Q01DX009 (ip), vehicle: carboxymethylcellulose (CMC) 92 % of control and 94 % of control | dose: 200.0 mg/kg/injection, schedule: Q04DX003 (ip), vehicle: carboxymethylcellulose (CMC) 92 % of control and 90 % of control | [3] 95 % of control | dose: 400.0 mg/kg/injection, schedule: Q01DX009 (ip), vehicle: carboxymethylcellulose (CMC) 104 % of control and 122 % of control | dose: 400.0 mg/kg/injection, schedule: Q04DX003 (ip), vehicle: carboxymethylcellulose (CMC) 98 % of control and 87 % of control

COc1ccc(C=O)c(Br)c1O
inactive: [10] 103 % of control | [5] 104 % of control | dose: 200.0 mg/kg/injection, schedule: Q01DX009 (ip), vehicle: Klucel (hydroxypropylcellulose) (HPC) 97 % of control | [6] 103 % of control | dose: 400.0 mg/kg/injection, schedule: Q01DX009 (ip), vehicle: Klucel (hydroxypropylcellulose) (HPC) 97 % of control | [7] 101 % of control

OCC(O)C(O)C(O)C(O)CNCC(O)C(O)C(O)C(O)CO (configuration not stated)
inactive: [11] 98 % of control and 91 % of control and 88 % of control | [12] 91 % of control and 100 % of control | dose: 400.0 mg/kg/injection, schedule: Q04DX002 (ip), vehicle: saline 91 % of control and 107 % of control and 95 % of control

CCC(O)C[As](=O)(O)c1cccc(Cl)c1 (configuration not stated)
inactive: dose: 0.78 mg/kg/injection, schedule: Q04DX002 (ip), vehicle: saline 106 % of control | dose: 0.78 mg/kg/injection, schedule: Q04DX003 (ip), vehicle: saline with Tween-80 92 % of control | dose: 1.56 mg/kg/injection, schedule: Q01DX001 (ip), vehicle: saline 96 % of control | dose: 1.56 mg/kg/injection, schedule: Q04DX002 (ip), vehicle: saline 101 % of control | dose: 1.56 mg/kg/injection, schedule: Q04DX003 (ip), vehicle: saline with Tween-80 94 % of control | dose: 3.13 mg/kg/injection, schedule: Q01DX001 (ip), vehicle: saline 100 % of control | dose: 3.13 mg/kg/injection, schedule: Q04DX002 (ip), vehicle: saline 105 % of control | dose: 3.13 mg/kg/injection, schedule: Q04DX003 (ip), vehicle: saline with Tween-80 95 % of control | dose: 6.25 mg/kg/injection, schedule: Q01DX001 (ip), vehicle: saline with Tween-80 120 % of control | [4] 91 % of control | dose: 6.25 mg/kg/injection, schedule: Q04DX002 (ip), vehicle: saline 97 % of control | dose: 6.25 mg/kg/injection, schedule: Q04DX003 (ip), vehicle: saline with Tween-80 92 % of control

CNC(=O)Oc1ccccc1C(N)=O
inactive: [8] 110 % of control | [9] 96 % of control | [10] 96 % of control and 92 % of control

Nc1cc(S(=O)(=O)O)cc2cc(S(=O)(=O)O)c(N=Nc3cc(S(=O)(=O)O)cc4cc(S(=O)(=O)O)cc(O)c34)c(O)c12
inactive: dose: 100.0 mg/kg/injection, schedule: Q01DX009 (ip), vehicle: saline 105 % of control | dose: 100.0 mg/kg/injection, schedule: Q04DX003 (ip), vehicle: saline 96 % of control | dose: 200.0 mg/kg/injection, schedule: Q01DX009 (ip), vehicle: saline 94 % of control | dose: 200.0 mg/kg/injection, schedule: Q04DX003 (ip), vehicle: saline 91 % of control | dose: 400.0 mg/kg/injection, schedule: Q01DX009 (ip), vehicle: saline 95 % of control | dose: 400.0 mg/kg/injection, schedule: Q04DX003 (ip), vehicle: saline 96 % of control
